According to paper PMC8880588, “In-Silico Screening of Novel Synthesized Thienopyrimidines Targeting Fms Related Receptor Tyrosine Kinase-3 and Their In-Vitro Biological Evaluation” (Pharmaceuticals, 2022):

Legend:
HT-29 cells = experiment: Preliminary antiproliferative assessment (MTT) at 10 and 100 μM; assay type: cell-based, human; settings: for growth inhibitory activities against HT-29 cells (preliminary assay): 10 and 100 μM, 72 h; for cytotoxic profile: result in words
Method: All synthesized compounds were subjected to preliminary antiproliferative assessment that was performed on HT-29 cells using concentrations 10 and 100 μM of synthesized compounds for 72 h and the percentage of cell viability was then calculated. […] Thus, all five compounds were further studied by a detailed dose–response relationship against three different cancerous cell lines HT-29, Hep-G2 and MCF-7.
(§1) Three cancer cell lines were used in the antiproliferative activities experiments, namely, breast cancer cell line (MCF-7) and human hepatoma cell line (HepG-2), and Colorectal cell line (HT-29). The source of cell lines is the health sciences research center-core lab- at princess Nou-rah bint Abdulrahman university. All cell lines were maintained in their optimum media (RPMI-1640 or DMEM) supplemented with 10% fetal bovine serum, 100 U/mL penicillin, and 100 μg/mL streptomycin and incubated in a humidified atmosphere at 37 °C with 5% CO2.
(§2) The MTT assay was used to evaluate the anti-proliferative effect of the synthesized compounds against three human cancer cell lines hepatocellular carcinoma (HepG-2), breast cancer (MCF-7) and Colorectal carcinoma (HT-29). For the preliminary screening, HT-29 cells were seeded in 96-well plates (Thermo Scientific, Waltham, MA, USA)(10^3 cells/well) and incubated for 24 h before the treatment. Then, cells were treated with two concentrations (10 and 100 µM) of the tested compounds for 72 h. After the exposure, MTT assay protocol was performed as described. After evaluation of the preliminary anticancer activity, the promising synthesized compounds (8, 9a, 9b, 10a, and 11) were selected and examined against three cell lines (HepG-2, MCF-7, and HT-29). Cells were exposed to serial concentration ([…]) of the selected compounds and dose–response curves were determined to calculate their IC50 values.

HT-29 = experiment: MTT dose-response anti-proliferative assay, HT-29; assay type: cell-based; settings: Homo sapiens; HT-29, MTT
Description: (§3) Doxorubicin was used as a positive reference for the comparison of anticancer activities. The results are tabulated as IC50 value in the μM range, Table 1.
as §1, §2

HepG-2 = experiment: MTT dose-response anti-proliferative assay, HepG-2; assay type: cell-based; settings: Homo sapiens, HepG2; HepG-2, MTT
Description: as §3, §1, §2

MCF-7 = experiment: MTT dose-response anti-proliferative assay, MCF-7; assay type: cell-based, human
Description: as §3, §1, §2

[1] = tested on: normal colon epithelial cells (CCD 841 CoN); experiment: Selectivity assay (MTT) on non-cancerous cells; assay type: cell-based; settings: for IC50: Homo sapiens, CCD 841 CoN, 72 h, MTT, read-out: IC50 of Non-Cancer Cells CCD 841; for Selectivity Index (SI) (IC50 of CCD 841/IC50 of HT29): ratio normal CCD 841 / cancer HT-29, 72 h
Method: In an attempt to evaluate the anticancer activity of the compounds, selectivity assay was performed and compounds’ selectivity to malignant cells was determined, reflected by their selectivity index. The selectivity index (SI) was calculated by the ratio of the IC50 value of the selected compounds on normal colon epithelial cells (CCD 841 CoN) to the IC50 value of the compounds on cancer cells (HT-29). […] However, based on the designed strategy, this high selectivity towards cancer cells may be attributed to their ability to target oncogenic kinases.
Cells were plated in 96-well plates (10^3 cells/well), and after 24 h, the compounds in concentrations (0.1 to 100 μM) were incubated for 72 h. MTT procedure was then performed, the ratio of IC50 values of the compounds on non-cancerous cells (CCD 841 CoN) to the IC50 values of the compounds on cancer cells (HT-29) was determined as reported, [23, 24] using the following equation, SI = IC50 of normal cells/IC50 of cancer cells.

[2] = tested on: protein kinases extracted from HT-29 cell line; experiment: Kinase inhibition assessment, single dose, ADP-Glo assay; assay type: biochemical, human; settings: 20 μM single dose, total intracellular kinases from HT-29, 45 min
Method: Inhibitory activity against kinases of the selected compounds was examined using homogeneous protein kinases extracted from HT-29 cell line. The screening assay was performed in a single dose concentration (20 μM) by using ADP-Glo assay (Promega, Madison, WI, USA).
Briefly, protein kinases were added into a 96-well plate followed by addition of the synthesized compounds at the tested dose (20 μM). After 45 min of exposure, kinase activity was assessed using a luminescent luciferase/luciferin reaction. Luminescence quantification was measured by using a Varioskan™ LUX multimode microplate reader (Thermo Scientific, Waltham, MA, USA). Kinase inhibition effect of tested compounds was expressed as the percentage of remaining kinase activity relative to vehicle kinase reaction.

FLT3 = molecular target: T1, FLT3 (Homo sapiens, UniProt P36888); experiment: In-vitro FLT3 kinase enzyme inhibition assay (FLT3 Kinase Assay Kit); assay type: biochemical; settings: FLT3 1.5 ng/µL, 45 min, mean ± SD, n = 3; read-out: FLT3 kinase inhibitory activity IC50
T1 construct: purchased BD Biosciences, San Diego, CA, USA
T1 sequence (P36888 27-993): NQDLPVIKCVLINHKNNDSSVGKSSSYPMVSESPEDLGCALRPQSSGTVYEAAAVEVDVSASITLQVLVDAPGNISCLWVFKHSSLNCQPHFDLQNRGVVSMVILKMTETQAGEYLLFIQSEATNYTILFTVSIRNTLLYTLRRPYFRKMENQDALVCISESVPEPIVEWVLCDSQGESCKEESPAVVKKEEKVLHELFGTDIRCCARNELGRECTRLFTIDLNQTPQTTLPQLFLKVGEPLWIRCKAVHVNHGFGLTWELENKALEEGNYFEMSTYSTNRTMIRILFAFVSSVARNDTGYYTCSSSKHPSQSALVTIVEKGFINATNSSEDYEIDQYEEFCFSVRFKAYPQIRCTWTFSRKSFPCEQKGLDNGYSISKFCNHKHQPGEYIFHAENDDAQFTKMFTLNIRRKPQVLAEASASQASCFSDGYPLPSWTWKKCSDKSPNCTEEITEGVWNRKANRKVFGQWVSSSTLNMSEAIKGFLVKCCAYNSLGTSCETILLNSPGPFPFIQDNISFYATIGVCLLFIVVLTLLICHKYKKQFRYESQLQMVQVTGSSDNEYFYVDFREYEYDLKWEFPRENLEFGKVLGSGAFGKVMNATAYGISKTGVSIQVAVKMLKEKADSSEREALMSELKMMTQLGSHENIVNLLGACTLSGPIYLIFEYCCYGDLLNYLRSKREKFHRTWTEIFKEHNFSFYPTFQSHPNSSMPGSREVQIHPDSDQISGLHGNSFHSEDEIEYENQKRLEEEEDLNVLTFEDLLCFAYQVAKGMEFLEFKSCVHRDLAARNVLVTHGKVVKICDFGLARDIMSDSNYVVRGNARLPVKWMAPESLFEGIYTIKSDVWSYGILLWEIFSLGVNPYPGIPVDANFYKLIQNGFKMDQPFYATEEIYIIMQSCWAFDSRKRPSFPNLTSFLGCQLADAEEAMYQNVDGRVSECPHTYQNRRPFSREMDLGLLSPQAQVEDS
Method: FLT3 Kinase Assay Kit (BD Biosciences, San Diego, CA, USA) was used to determine the inhibitory selectivity of the selected compounds towards the FLT3 enzyme. briefly, serial dilution of the selected compounds was incubated with FLT3 (1.5 ng/µL) for 45 min in a kinase reaction buffer. The FLT3 enzyme reaction was halted and measured by quantifying the amount of ADP produced during the enzyme reaction. Luminescence values were measured by a Varioskan™ LUX multimode microplate reader (Thermo Scientific, Waltham, MA, USA). IC50 was calculated with nonlinear regression compared with untreated reaction using Prism version 8.4.3 (GraphPad).

melting point	IC50 (HT-29)	IC50 (MCF-7; Homo sapiens, MCF7, MCF-7, MTT)	IC50 (FLT3)	IC50 (MCF-7; MCF-7, MTT)	Compound	growth inhibition at concentration 100 µM (HT-29 cells; 100 µM, preliminary assay)	growth inhibitory activities against HT-29 cells (preliminary assay) (HT-29 cells)	IC50 (HepG-2)	IC50 [1]	Selectivity Index (SI) (IC50 of CCD 841/IC50 of HT29) [1]	kinase inhibition [2]	cytotoxic profile (HT-29 cells)
138 to 140 °C					Cc1nc2sc3c(c2c(=O)n1NC(=S)Nc1ccccc1)CCCC3 [Compound 5, 1-(2-Methyl-4-oxo-5,6,7,8-tetrahydrobenzo[4,5]thieno[2,3-d]pyrimidin-3(4H)-yl)-3-phenylthiourea]							
198 to 200 °C					Cc1nc2sc3c(c2c(=O)n1N1C(=O)CN(c2ccccc2)C1=S)CCCC3 [Compound 6, 2-Methyl-3-(5-oxo-3-phenyl-2-thioxoimidazolidin-1-yl)-5,6,7,8-tetrahydrobenzo[4,5]thieno[2,3-d]pyrimidin-4(3H)-one]							
170 to 172 °C	1780 ± 600 nM	7.53 ± 0.07 µM	40 ± 5.5 µM	7.537 ± 0.07 µM	CCOC(=O)c1c(NC(=S)Nc2ccccc2)sc2c1CCCC2 [Compound 11, Ethyl-2-(3-phenylthioureido)-5,6,7,8-tetrahydrobenzo[b]thiophene-3-carboxylate]		moderate to significant	16.4 ± 5.7 µM	178 ± 20.4 µM	99.7	79.2%	
198 to 200 °C			27.2 ± 5.6 µM		Nn1c(Nc2ccccc2)nc2sc3c(c2c1=O)CCCC3 [Compound 12, 3-Amino-2-phenylamino-5,6,7,8-tetrahydrobenzo[4,5]thieno[2,3-d]pyrimidin-4(3H)-one]						65.3%	

The remaining lines, values behind:

Compound	melting point	IC50 (HT-29)	IC50 (MCF-7; Homo sapiens, MCF7, MCF-7, MTT)	IC50 (FLT3)	IC50 (MCF-7; MCF-7, MTT)	growth inhibition at concentration 100 µM (HT-29 cells; 100 µM, preliminary assay)	growth inhibitory activities against HT-29 cells (preliminary assay) (HT-29 cells)	IC50 (HepG-2)	IC50 [1]	Selectivity Index (SI) (IC50 of CCD 841/IC50 of HT29) [1]	kinase inhibition [2]	cytotoxic profile (HT-29 cells)
CC1=CC(=O)N(n2c(C)nc3sc4c(c3c2=O)CCCC4)C1=O [Compound 4, 3-Methyl-1-(2-methyl-4-oxo-5,6,7,8-tetrahydrobenzo[4,5]thieno[2,3-d]pyrimidin-3(4H)-yl)-1H-pyrrole-2,5-dione]	125 to 127 °C					weak growth inhibition						
Cc1nc2sc3c(c2c(=O)n1NCC(=O)Nc1cc(C(C)(C)C)no1)CCCC3 [Compound 7a, 2-(2-Methyl-4-oxo-5,6,7,8-tetrahydrobenzo[4,5]thieno[2,3-d]pyrimidin-3(4H)-ylamino)-N-(3-tert-butylisoxazol-5-yl)acetamide]	120 to 122 °C											
Cc1nc2sc3c(c2c(=O)n1NCC(=O)Nc1cc(C(C)(C)C)on1)CCCC3 [Compound 7b, 2-(2-Methyl-4-oxo-5,6,7,8-tetrahydrobenzo[4,5]thieno[2,3-d]pyrimidin-3(4H)-ylamino)-N-(5-tert-butylisoxazol-3-yl)acetamide]	128 to 130 °C											
Cc1nc2sc3c(c2c(=O)n1NC(=O)CCl)CCCC3 [Compound 8, 2-Chloro-N-(2-methyl-4-oxo-5,6,7,8-tetrahydrobenzo[4,5]thieno[2,3-d]pyrimidin-3(4H)-yl)acetamide]		2000 ± 620 nM	11 ± 0.8 µM				moderate to significant	13.5 ± 2.7 µM	151 ± 20.2 µM	75.5	49.6%	
Cc1nc2sc3c(c2c(=O)n1NC(=O)CNc1cc(C(C)(C)C)no1)CCCC3 [Compound 9a, 2-(3-Tert-butylisoxazol-5-ylamino)-N-(2-methyl-4-oxo-5,6,7,8-tetrahydrobenzo[4,5]thieno[2,3-d]pyrimidin-3(4H)-yl)acetamide]	89 to 92 °C	1210 ± 340 nM	7.2 ± 1.9 µM	20.4 ± 2.8 µM			moderate to significant	6.62 ± 0.7 µM	11.3 ± 5.6 µM	9.4		
Cc1nc2sc3c(c2c(=O)n1NC(=O)CNc1cc(C(C)(C)C)on1)CCCC3 [Compound 9b, 2-(5-Tert-butylisoxazol-3-ylamino)-N-(2-methyl-4-oxo-5,6,7,8-tetrahydrobenzo[4,5]thieno[2,3-d]pyrimidin-3(4H)-yl)acetamide]	98 to 100 °C	850 ± 160 nM	16.3 ± 2.3 µM	47.6 ± 9.3 µM			moderate to significant	9.11 ± 0.3 µM	17.2 ± 1.4 µM	20.2	13.05%	
Cc1nc2sc3c(c2c(=O)n1NC(=O)CN1CCOCC1)CCCC3 [Compound 10a, N-(2-methyl-4-oxo-5,6,7,8-tetrahydrobenzo[4,5]thieno[2,3-d]pyrimidin-3(4H)-yl)-2-morpholinoacetamide]	222 to 225 °C	167000 ± 8150 nM	105 ± 36.4 µM	17.8 ± 3.8 µM			moderate to significant	188 ± 28.2 µM			75.1%	weak cytotoxic profile
Cc1nc2sc3c(c2c(=O)n1NC(=O)CN1CCN(C)CC1)CCCC3 [Compound 10b, N-(2-methyl-4-oxo-5,6,7,8-tetrahydrobenzo[4,5]thieno[2,3-d]pyrimidin-3(4H)-yl)-2-(4-methylpiperazin-1-yl)acetamide]	187 to 189 °C											weak cytotoxic profile
COc1cccc2c1C(=O)c1c(O)c3c(c(O)c1C2=O)C[C@@](O)(C(=O)CO)C[C@@H]3O[C@H]1C[C@H](N)[C@H](O)[C@H](C)O1 [Dox, Doxorubicin, reference compound]		1400 ± 1160 nM	8.43 ± 0.5 µM					13.9 ± 2.2 µM				
